The values below come from US8148391B2 (Cephalon, Inc., priority 2006, dated 2012).

For test [1], the target named is T1, baculovirus-expressed ALK (Homo sapiens, UniProt Q9UM73).
T1 construct: host or cells: baculovirus expression system
Description: ALK Kinase Assay (ELISA-type, time-resolved fluorescence). The format is biochemical. Particulars: ALK kinase inhibition, 1 μM ATP; read-out: ALK Activity. The essentials:
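Substrate coating: phospholipase C-γ, 10 μg/mL in TBS. Kinase step: 30 ng/ml ALK, 15 min, 37° C. Detection and analysis: Eu-N1 PT66 antibody, with IC50 fitted as a sigmoidal variable-slope dose-response curve.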
A general note: In an ELISA, binding on a coated surface is turned into a signal by an enzyme label.

Test [2] deals with T2, c-Met (cytoplasmic domain) (Homo sapiens, UniProt P08581).
T2 construct: 10 ng/mL c-Met (cytoplasmic domain, Invitrogen Corporation #PV3143); purchased Invitrogen Corporation PV3143
Description: c-Met Kinase Assay (same methods as for ALK, with modifications). The format is biochemical. The settings on record: c-Met kinase inhibition, 1 μM ATP; read-out: cMet Activity. The method in brief: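 Wells were coated with 10 μg/mL phospholipase C-γ substrate in TBS, and reactions were started with 10 ng/mL c-Met cytoplasmic domain and run at 37° C for 15 minutes. Phosphorylated product was detected with Eu-N1-labeled PT66 antibody. IC50 values came from sigmoidal variable-slope fits of percent inhibition versus log compound concentration.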

Each structure is given as a SMILES string.

T2 sequence (P08581 956-1390 limits assumed): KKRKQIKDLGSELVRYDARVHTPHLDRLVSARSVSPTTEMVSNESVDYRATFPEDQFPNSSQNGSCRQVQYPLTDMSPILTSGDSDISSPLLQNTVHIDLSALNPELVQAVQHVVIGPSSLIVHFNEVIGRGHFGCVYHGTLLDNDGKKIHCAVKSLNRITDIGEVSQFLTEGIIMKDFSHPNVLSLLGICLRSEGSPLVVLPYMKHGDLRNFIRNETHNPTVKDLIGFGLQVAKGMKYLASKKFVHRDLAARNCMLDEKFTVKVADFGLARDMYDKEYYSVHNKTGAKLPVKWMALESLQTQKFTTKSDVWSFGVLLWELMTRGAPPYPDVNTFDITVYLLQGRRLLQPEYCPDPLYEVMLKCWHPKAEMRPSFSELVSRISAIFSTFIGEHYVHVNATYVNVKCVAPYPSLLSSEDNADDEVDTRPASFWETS
T1 sequence (Q9UM73 19-1620): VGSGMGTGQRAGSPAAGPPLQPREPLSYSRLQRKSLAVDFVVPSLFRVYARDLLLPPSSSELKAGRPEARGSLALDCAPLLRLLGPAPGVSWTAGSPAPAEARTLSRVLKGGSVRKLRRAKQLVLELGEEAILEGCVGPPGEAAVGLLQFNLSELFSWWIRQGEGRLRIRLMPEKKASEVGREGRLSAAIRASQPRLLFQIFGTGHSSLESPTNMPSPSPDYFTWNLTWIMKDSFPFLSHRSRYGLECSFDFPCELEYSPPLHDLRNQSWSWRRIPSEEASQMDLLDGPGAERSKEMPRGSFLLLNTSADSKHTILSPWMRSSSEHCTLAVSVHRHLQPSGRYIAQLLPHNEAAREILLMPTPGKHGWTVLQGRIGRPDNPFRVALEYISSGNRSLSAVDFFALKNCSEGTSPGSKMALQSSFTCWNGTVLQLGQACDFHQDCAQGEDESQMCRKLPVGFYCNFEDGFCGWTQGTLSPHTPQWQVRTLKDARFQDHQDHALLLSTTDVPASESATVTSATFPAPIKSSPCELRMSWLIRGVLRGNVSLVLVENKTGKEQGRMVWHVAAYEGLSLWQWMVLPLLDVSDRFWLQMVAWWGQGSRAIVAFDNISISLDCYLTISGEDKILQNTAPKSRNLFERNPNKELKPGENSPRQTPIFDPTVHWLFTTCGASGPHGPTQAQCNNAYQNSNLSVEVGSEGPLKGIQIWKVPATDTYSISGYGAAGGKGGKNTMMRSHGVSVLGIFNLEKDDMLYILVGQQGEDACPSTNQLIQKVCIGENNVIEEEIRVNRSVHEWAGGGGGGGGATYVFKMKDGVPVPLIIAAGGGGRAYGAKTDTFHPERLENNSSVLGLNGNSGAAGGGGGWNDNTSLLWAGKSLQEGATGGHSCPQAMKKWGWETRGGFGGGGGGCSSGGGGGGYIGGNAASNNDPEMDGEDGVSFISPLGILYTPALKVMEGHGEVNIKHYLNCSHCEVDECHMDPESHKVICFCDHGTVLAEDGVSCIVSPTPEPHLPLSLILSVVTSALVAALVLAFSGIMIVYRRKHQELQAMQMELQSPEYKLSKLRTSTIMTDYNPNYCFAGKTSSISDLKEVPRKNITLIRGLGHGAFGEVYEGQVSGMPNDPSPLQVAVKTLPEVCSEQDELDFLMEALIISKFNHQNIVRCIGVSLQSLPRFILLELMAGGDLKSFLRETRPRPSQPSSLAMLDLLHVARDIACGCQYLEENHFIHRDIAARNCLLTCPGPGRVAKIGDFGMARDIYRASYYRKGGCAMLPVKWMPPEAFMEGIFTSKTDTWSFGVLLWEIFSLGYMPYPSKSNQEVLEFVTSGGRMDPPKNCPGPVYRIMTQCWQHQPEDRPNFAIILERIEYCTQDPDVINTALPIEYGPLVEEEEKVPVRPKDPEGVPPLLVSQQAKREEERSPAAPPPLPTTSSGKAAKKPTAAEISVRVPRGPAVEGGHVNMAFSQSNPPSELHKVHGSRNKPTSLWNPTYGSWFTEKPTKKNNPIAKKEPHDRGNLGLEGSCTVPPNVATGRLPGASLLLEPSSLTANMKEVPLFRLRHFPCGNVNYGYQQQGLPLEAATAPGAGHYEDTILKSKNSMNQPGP

In the case of `CC(=O)NCc1ccccc1Nc1nc(Nc2ccc3c(c2)CCOC(=O)N3C)ncc1Cl` [Example 1793, N-{2-[5-Chloro-2-(5-methyl-6-oxo-5,6,8,9-tetrahydro-7-oxa-5-aza-benzocyclohepten-2-ylamino)-pyrimidin-4-ylamino]-benzyl}-acetamide], the IC50 in test [1] was in the range of 100 to 1000 nM; in test [2], 1000 to 10000 nM.

In the case of `CNC(=O)c1ccccc1Nc1nc(Nc2ccc3c(c2)CNC(=O)CC3)ncc1Cl` [Example 1794, 2-[5-Chloro-2-(3-oxo-2,3,4,5-tetrahydro-1H-benzo[c]azepin-8-ylamino)-pyrimidin-4-ylamino]-N-methylbenzamide], the IC50 in test [1] and in test [2] was under 100 nM in each case.

For `CNC(=O)c1scc(C)c1Nc1nc(Nc2ccc3c(c2)CNC(=O)CC3)ncc1Cl` [Example 1795, 3-[5-Chloro-2-(3-oxo-2,3,4,5-tetrahydro-1H-benzo[c]azepin-8-ylamino)-pyrimidin-4-ylamino]-4-methyl-thiophene-2-carboxylic acid methylamide], the figures for the IC50 in test [1] and in test [2] were 1000 to 10000 nM and under 100 nM, respectively.

In the case of `CNC(=O)c1cccc(Cl)c1Nc1nc(Nc2ccc3c(c2)CNC(=O)CC3)ncc1Cl` [Example 1796, 3-Chloro-2-[5-chloro-2-(3-oxo-2,3,4,5-tetrahydro-1H-benzo[c]azepin-8-ylamino)-pyrimidin-4-ylamino]-N-methylbenzamide], the IC50 was 100 to 1000 nM in test [1] and under 100 nM in test [2].

In the case of `NC(=O)C1C2C=CC(C2)C1Nc1nc(Nc2ccc3c(c2)CNC(=O)CC3)ncc1Cl` (stereo not drawn) [Example 1797, 3-exo-[5-Chloro-2-(3-oxo-2,3,4,5-tetrahydro-1H-benzo[c]azepin-8-ylamino)-pyrimidin-4-yl]aminobicyclo[2.2.1]hept-5-ene-2-exo-carboxamide], the IC50 in test [1] is under 100 nM; in test [2] it was 100 to 1000 nM.

Consider `CNC(=O)c1scc(C)c1Nc1nc(Nc2ccc3c(c2)CN(C)C(=O)CC3)ncc1Cl` [Example 1799, 3-[5-Chloro-2-(2-methyl-3-oxo-2,3,4,5-tetrahydro-1H-benzo[c]azepin-8-ylamino)-pyrimidin-4-ylamino]-4-methyl-thiophene-2-carboxylic acid methylamide], for which the IC50 in test [1] and in test [2] was under 100 nM throughout.

In the case of `CNC(=O)c1ccccc1N(C)c1nc(Nc2ccc3c(c2)CN(C)C(=O)CC3)ncc1F` [Example 1800, 2-{[5-Fluoro-2-(2-methyl-3-oxo-2,3,4,5-tetrahydro-1H-benzo[c]azepin-8-ylamino)-pyrimidin-4-yl]-methyl-amino}-N-methyl-benzamide], the IC50 in test [1] was 1000 to 10000 nM; in test [2], under 100 nM.

Take `CNC(=O)c1cc(C)cc(C)c1Nc1nc(Nc2ccc3c(c2)CN(C)C(=O)CC3)ncc1Cl` [Example 1801, 2-[5-Chloro-2-(2-methyl-3-oxo-2,3,4,5-tetrahydro-1H-benzo[c]azepin-8-ylamino)-pyrimidin-4-ylamino]-3,5,N-trimethyl-benzamide]: the IC50 in test [1] is 1000 to 10000 nM; in test [2], over 10000 nM.

On to `CN1Cc2cc(Nc3ncc(Cl)c(Nc4ccccc4-c4nccn4C)n3)ccc2CCC1=O` [Example 1802, 8-{5-Chloro-4-[2-(1-methyl-1H-imidazol-2-yl)-phenylamino]-pyrimidin-2-ylamino}-2-methyl-1,2,4,5-tetrahydro-benzo[c]azepin-3-one], for which the IC50 in test [1] lay in the range of 1000 to 10000 nM; in test [2], 100 to 1000 nM.

Take `CN1Cc2cc(Nc3ncc(Cl)c(Nc4cccc5c4OC(F)(F)O5)n3)ccc2CCC1=O` [Example 1803, 8-[5-Chloro-4-(2,2-difluoro-benzo[1,3]dioxol-4-ylamino)-pyrimidin-2-ylamino]-2-methyl-1,2,4,5-tetrahydro-benzo[c]azepin-3-one]: the IC50 is under 100 nM in test [1] and 100 to 1000 nM in test [2].

With `CN1Cc2cc(Nc3ncc(Cl)c(Nc4ccccc4-c4cc[nH]n4)n3)ccc2CCC1=O` [Example 1804, 8-{5-Chloro-4-[2-(1H-pyrazol-3-yl)-phenylamino]-pyrimidin-2-ylamino}-2-methyl-1,2,4,5-tetrahydro-benzo[c]azepin-3-one], the IC50 is under 100 nM in test [1] and 100 to 1000 nM in test [2].

With `CNC(=O)c1cccc(Cl)c1Nc1nc(Nc2ccc3c(c2)CN(C)C(=O)CC3)ncc1Cl` [Example 1805, 3-Chloro-2-[5-chloro-2-(2-methyl-3-oxo-2,3,4,5-tetrahydro-1H-benzo[c]azepin-8-ylamino)-pyrimidin-4-ylamino]-N-methyl-benzamide], the IC50 is under 100 nM in test [1] and 100 to 1000 nM in test [2].

With `CNC(=O)c1cccc(F)c1Nc1nc(Nc2ccc3c(c2)CN(C)C(=O)CC3)ncc1Cl` [Example 1806, 3-Fluoro-2-[5-chloro-2-(2-methyl-3-oxo-2,3,4,5-tetrahydro-1H-benzo[c]azepin-8-ylamino)-pyrimidin-4-ylamino]-N-methyl-benzamide], the IC50 in test [1] is 1000 to 10000 nM; in test [2], under 100 nM.

Consider `CNC(=O)c1c(Cl)sc(Cl)c1Nc1nc(Nc2ccc3c(c2)CN(C)C(=O)CC3)ncc1Cl` [Example 1807, 2,5-Dichloro-4-[5-chloro-2-(2-methyl-3-oxo-2,3,4,5-tetrahydro-1H-benzo[c]azepin-8-ylamino)-pyrimidin-4-ylamino]-thiophene-3-carboxylic acid methylamide], for which the IC50 in test [1] and in test [2] was under 100 nM in each case.

Take `CNCc1ccccc1Nc1nc(Nc2ccc3c(c2)CN(C)C(=O)CC3)ncc1Cl` [Example 1808, 8-[5-Chloro-4-(2-methylaminomethyl-phenylamino)-pyrimidin-2-ylamino]-2-methyl-1,2,4,5-tetrahydro-benzo[c]azepin-3-one]: the IC50 is 1000 to 10000 nM in test [1] and under 100 nM in test [2].

As for `CNC(=O)c1cc(F)ccc1Nc1nc(Nc2ccc3c(c2)CN(C)C(=O)CC3)ncc1Cl` [Example 1809, 2-[5-Chloro-2-(2-methyl-3-oxo-2,3,4,5-tetrahydro-1H-benzo[c]azepin-8-ylamino)-pyrimidin-4-ylamino]-5-fluoro-N-methyl-benzamide], the IC50 in test [1] and in test [2] was 1000 to 10000 nM each time.

Take `CN1Cc2cc(Nc3ncc(Cl)c(Nc4ccccc4OCC#N)n3)ccc2CCC1=O` [Example 1810, {2-[5-Chloro-2-(2-methyl-3-oxo-2,3,4,5-tetrahydro-1H-benzo[c]azepin-8-ylamino)-pyrimidin-4-ylamino]-phenoxy}-acetonitrile]: the IC50 in test [1] and in test [2] was under 100 nM throughout.

With `CNC(=O)c1ccccc1Nc1nc(Nc2ccc3c(c2)CC(=O)NCC3)ncc1Cl` [Example 1811, 2-[5-Chloro-2-(4-oxo-2,3,4,5-tetrahydro-1H-benzo[d]azepin-7-ylamino)-pyrimidin-4-ylamino]-N-methylbenzamide], the IC50 in test [1] and in test [2] was under 100 nM throughout.

Turning to `CNC(=O)c1scc(C)c1Nc1nc(Nc2ccc3c(c2)CC(=O)NCC3)ncc1Cl` [Example 1812, 3-[5-Chloro-2-(4-oxo-2,3,4,5-tetrahydro-1H-benzo[d]azepin-7-ylamino)-pyrimidin-4-ylamino]-4-methyl-thiophene-2-carboxylic acid methylamide], the IC50 in test [1] and in test [2] was under 100 nM throughout.

Regarding `O=C1Cc2ccc(Nc3ncc(Cl)c(Nc4ccccc4-n4cccn4)n3)cc2CCN1` [Example 1813, 7-[5-Chloro-4-(2-pyrazol-1-yl-phenylamino)-pyrimidin-2-ylamino]-1,3,4,5-tetrahydro-benzo[d]azepin-2-one], the IC50 in test [1] is 1000 to 10000 nM; in test [2], under 100 nM.

On to `CNC(=O)c1cc(C)cc(C)c1Nc1nc(Nc2ccc3c(c2)CCNC(=O)C3)ncc1Cl` [Example 1814, 2-[5-Chloro-2-(2-oxo-2,3,4,5-tetrahydro-1H-benzo[d]azepin-7-ylamino)-pyrimidin-4-ylamino]-3,5,N-trimethyl-benzamide], for which the IC50 in test [1] was under 100 nM; in test [2] it was 100 to 1000 nM.

`CNC(=O)c1ccccc1Nc1nc(Nc2ccc3c(c2)CC(=O)N(C)CC3)ncc1Cl` [Example 1815, 2-[5-Chloro-2-(3-methyl-4-oxo-2,3,4,5-tetrahydro-1H-benzo[d]azepin-7-ylamino)-pyrimidin-4-ylamino]-N-methylbenzamide]: the IC50 in test [1] is 1000 to 10000 nM; in test [2], 100 to 1000 nM.

On to `CNC(=O)c1scc(C)c1Nc1nc(Nc2ccc3c(c2)CC(=O)N(C)CC3)ncc1Cl` [Example 1816, 3-[5-Chloro-2-(3-methyl-4-oxo-2,3,4,5-tetrahydro-1H-benzo[d]azepin-7-ylamino)-pyrimidin-4-ylamino]-4-methyl-thiophene-2-carboxylic acid methylamide], for which the IC50 was under 100 nM in test [1] and 100 to 1000 nM in test [2].

Turning to `CNC(=O)c1cccc(Cl)c1Nc1nc(Nc2ccc3c(c2)CC(=O)N(C)CC3)ncc1Cl` [Example 1817, 3-Chloro-2-[5-chloro-2-(3-methyl-4-oxo-2,3,4,5-tetrahydro-1H-benzo[d]azepin-7-ylamino)-pyrimidin-4-ylamino]-N-methylbenzamide], the IC50 in test [1] lay in the range of 1000 to 10000 nM; in test [2], 100 to 1000 nM.

For the molecule `CNC(=O)c1ncccc1Nc1nc(Nc2ccc3c(c2)CC(=O)N(C)CC3)ncc1Cl` [Example 1820, 3-[5-Chloro-2-(3-methyl-4-oxo-2,3,4,5-tetrahydro-1H-benzo[d]azepin-7-ylamino)-pyrimidin-4-ylamino]-pyridine-2-carboxylic acid methylamide], the IC50 in test [1] is under 100 nM; in test [2], 1000 to 10000 nM.
